{"source": "patent US11225503B2", "about": "“Crystobactamides” (HELMHOLTZ-ZENTRUM FÜR INFEKTIONSFORSCHUNG GMBH, priority 2013, dated 2022)", "experiment": "in vitro", "format": "cell-based, Chinese hamster", "settings": "Chinese hamster", "method": "Human HCT-116 colon carcinoma cells (CCL-247) were obtained from the American Type Culture Collection (ATCC) and Chinese hamster ovary CHO-K1 cells (ACC-110) were obtained from the German Collection of Microorganisms and Cell Cultures (DSMZ). Both cell lines were cultured under the conditions recommended by the respective depositor. Primary HUVEC (human umbilical vein endothelial cells; single donor) were purchased from PromoCell (Heidelberg, Germany) and cultured in Endothelial Cell Growth Medium (PromoCell) containing the following supplements: 2% FCS, 0.4% ECGS, 0.1 ng/ml EGF, 1 ng/ml bFGF, 90 μg/ml heparin, 1 μg/ml hydrocortisone.\nCells were seeded at 6×10^3 cells per well of 96-well plates (Corning CellBind®) in complete medium (180 μl) and directly treated with cystobactamides dissolved in methanol in a serial dilution. Compound were tested in duplicate for 5 d, as well as the internal solvent control. After 5 d incubation, 5 mg/ml MTT in PBS (20 μL) was added per well and it was further incubated for 2 h at 37° C.[7] The medium was then discarded and cells were washed with PBS (100 μl) before adding 2-propanol/10N HCl (250:1, v/v; 100 μl) in order to dissolve formazan granules. The absorbance at 570 nm was measured using a microplate reader (EL808, Bio-Tek Instruments Inc.)."}
{"smiles": "CC(C)Oc1cc(C(=O)O)ccc1NC(=O)c1ccc(NC(=O)c2ccc(N)cc2)c(OC(C)C)c1O", "note": "[cystobactamide C, Cystobactamide C]", "values": [{"measurement": "GI50 at 5 d", "result": "~111", "unit": "µM"}]}
